From US7179800B2 (priority 2002, dated 2007)

Columns and labels:
CB2 receptor = target: T1, CB2 receptor (Homo sapiens, UniProt P34972); test: CB2 binding procedure: displacement of [3H]CP-55,940 from membranes of transfected CHO cells; details: means ± SEM; [3H]CP-55,940, transfected CHO cell membranes; read-out: Ki (nM) CB2
T1 construct: expressed in transfected cells; host or cells: CHO cells, G418-selected transfected line
Procedure: Membranes for CB2 binding were obtained from CHO cells. The transfected cell line was maintained in Dublecco's Modified Eagle Medium (Gibco BRL, Grand Island, N.Y.) with 10% fetal clone II (HyClone Laboratories, Inc., Logan, Utah) plus 0.3 to 0.5 mg/ml G418 (to maintain selective pressure) under 5% CO2 at 37% C. Cells were harvested with 1 mM EDTA in phosphate-buffered saline and were centrifuged at 1000×g for 5 min at 4% C. The supernatant was saved and the P1 pellet was resuspended in centrifugation buffer. Homogenization and centrifugation were repeated twice and the combined supernatant fractions were centrifuged at 40,000×g for 30 min at 4% C. The P2 pellet was resuspended in centrifugation buffer 2 (Tris HCl, 50 mM; EDTA, 1 mM; and MgCl2, 3 mM, pH 7.4) to a protein concentration of approximately 2 mg/ml. Protein concentrations were determined by the method of Bradford (1976) using Bio-Rad Protein Assay (Bio-Rad, Richmond, Calif.) and BSA standards (fatty acid free, Sigma Chemical Co., St. Louis, Mo.). The membrane preparation was divided into amounts convenient for binding assays and frozen rapidly in dry ice and stored at −80% C.
Binding was initiated by the addition of 50 μg of quickly thawed P2 membranes to test tubes containing [^3H]CP-55,940 (final reaction concentration 0.5 nM), an appropriate concentration of unlabeled CP-55,940 or test drug, and sufficient quantity of assay buffer (50 mM Tris-HCl, 1 mM EDTA, 3 mM MgCl2, 5 mg/ml bovine serum albumin, pH 7.4) to bring the total incubation volume to 0.5 ml. Concentration of [^3H]CP-55,940 in saturation studies ranged from 50 to 10,000 pM. Nonspecific binding was determined by the addition of 1 μM unlabeled CP-55,940. CP-55,940 and all cannabinoid analogs were prepared by suspension in assay buffer from a 1 mg/ml ethanolic stock without evaporation of the ethanol (final concentration of no more than 0.4%). In competition studies, analog concentrations ranged from 0.1 nM to 10 μM. After incubation at 30% C for 1 hr, binding was terminated by the addition of 2 ml of ice-cold wash buffer (50 mM Tris-HCl and 1 mg/ml BSA) and vacuum filtration through pre-treated filters in a 12-well sampling manifold (Millipore, Bedford, Mass.). Reaction vessels were washed once with 2 ml of ice-cold wash buffer. Filters were placed into 7-ml plastic scintillation vials (RPI Corp., Mount Prospect, Ill.) with 4 ml of Budget-Solve (RPI Corp.). After shaking for 30 min, the radioactivity present was determined by liquid scintillation spectrometry. Three reaction vessels were used for each drug concentration in each assay. The results represent the combined data of three independent experiments. All assays were performed in siliconized test tubes, which were prepared by air drying (12 hr) inverted borosilicate tubes after two rinses with a 0.1% solution of AquaSil (Pierce, Rockford, Ill.). The GF/C glass-fiber filters (2.4 cm, Baxter, McGaw Park, Ill.) were pre-treated in a 0.1% solution of pH 7.4 polyethylenimine (Sigma Chemical Co.) for at least 6 hr.
(§1) In addition, multiple linear regression was used to calculate the overall degree of relationship between CB1 binding affinity and potency in the mouse measures for all active cannabinoids. […] Ki values for CB1 and CB2 binding were obtained from Scatchard displacement analysis as determined via EBDA program of the KELL software package (Biosoft, Milltown, N.J.).

Male ICR mice [1] = test: Suppression of spontaneous activity (SA) in mice; format: in vivo, mouse
Procedure: (§2) Male ICR mice (25–32 g), obtained from Harlan (Dublin, Va.), were housed in groups of five. All animals were kept in a temperature-controlled (20–22° C.) environment with a 12-hour light-dark cycle (lights on at 7 a.m.). Separate mice were used for testing each drug dose in the in vivo behavioral procedures. Brain tissue for binding studies was obtained from male Sprague-Dawley rats (150–200 g) purchased from Harlan Laboratories (Dublin, Va.).
(§3) Measurement of spontaneous activity in mice occurred in standard activity chambers interfaced with a Digiscan Animal Activity Monitor (Omnitech Electronics, Inc., Columbus, Ohio). A standard tail-flick apparatus and a digital thermometer (Fisher Scientific, Pittsburgh, Pa.) were used to measure antinociception and rectal temperature, respectively
(§4) Resorcinols were synthesized in our labs (Organix, Inc., Woburn, Mass.) according to the procedure specified below and were suspended in a vehicle of absolute ethanol, Emulphor-620 (Rhone-Poulenc, Inc., Princeton, N.J.), and saline in a ratio of 1:1:18. Drugs were administered to the mice intravenously (i.v.) in the tail vein at a volume of 0.1 ml/10 g.
(§5) Prior to testing in the behavioral procedures, mice were acclimated to the experimental setting (ambient temperature 22–24° C.) overnight. Pre-injection control values were determined for rectal temperature and tail-flick latency (in sec). […] Tail-flick latency was measured at 20 min post-injection. Maximum latency of 10 sec was used. Antinociception was calculated as percent of maximum possible effect {% MPE=[(test−control latency)/(10-control)]×100}. Control latencies typically ranged from 1.5 to 4.0 sec. At 30 min post-injection, rectal temperature was measured This value was expressed as the difference between control temperature (before injection) and temperatures following drug administration (° C.). Different mice (n=5–6 per dose) were tested for each dose of each compound. Each mouse was tested in each of the 3 procedures.
(§6) Based on data obtained from numerous previous studies with cannabinoids, maximal cannabinoid effects in each procedure were estimated as follows: 90% inhibition of spontaneous activity, 100% MPE in the tail flick procedure, and −6° C. change in rectal temperature. ED50's were defined as the dose at which half maximal effect occurred. For drugs that produced one or more cannabinoid effect, ED50's were calculated separately using least-squares linear regression on the linear part of the dose-effect curve for each measure in the mouse tetrad, plotted against log10 transformation of the dose. For the purposes of potency comparison, potencies were expressed as μmol/kg.

Male ICR mice [2] = test: Tail-flick antinociception (TF, % MPE) in mice; format: in vivo, mouse
Procedure: as §2, §3, §4, §5, §6

Male ICR mice [3] = test: Change in rectal temperature (RT) in mice; format: in vivo, mouse
Procedure: as §2, §3, §4, §5, §6

Male ICR mice [4] = test: Lethality noted in the mouse behavioral procedures; format: in vivo; details: Table 6; @ 30 (mg/kg)
Procedure: as §4, §5

CB1 receptor = CB1 receptor (Rattus norvegicus, UniProt P20272); test: CB1 binding procedure: displacement of [3H]CP 55,940 from rat whole-brain P2 membranes; parameters: whole brain was homogenized and centrifuged; from tissue; host or cells: rat whole brain, P2 membrane fraction; details: means ± SEM; [3H]CP 55,940, rat brain membranes; read-out: Ki (nM) CB1
Procedure: as §2
The methods used for tissue preparation and binding have been described previously (Compton et al., 1993) and are similar to those described by Devane et al. (1988). All assays, as described briefly below, were performed in triplicate, and the results represent the combined data from three to six individual experiments.
Following decapitation and rapid removal of the brain, whole brain was homogenized and centrifuged. The resulting pellet was termed P1. The supernatant was saved and combined with the two subsequent supernatants obtained from washing of the P1 pellet. The combined supernatant fractions were centrifuged, resulting in the P2 pellet. After further incubation and centrifuging, this pellet was resuspended in assay buffer to a protein concentration of approximately 2 mg/ml. The membrane preparation was quickly frozen in a bath solution of dry ice and 2-methylbutane (Sigma Chemical Co., St. Louis, Mo.), then stored at −80° C. for no more than 2 weeks. Prior to performing a binding assay an aliquot of frozen membrane was rapidly thawed and protein values determined by the method of Bradford (1976).
Binding was initiated by the addition of 150 μg of P2 membrane to test tubes containing 1 nM of [^3H] CP 55,940 (79 Ci/mmol) and a sufficient quantity of buffer to bring the total incubation volume to 1 ml. Nonspecific binding was determined by the addition of 1 μM unlabeled CP 55,940. Following incubation at 30° C. for 1 hr, binding was terminated by addition of ice cold buffer and vacuum filtration through pretreated filters in a 12-well sampling manifold (Millipore, Bedford, Mass.). After washing, filters were placed into plastic scintillation vials (Packard, Downer Grove, Ill.) and shaken. The quantity of radioactivity present was determined by liquid scintillation spectrometry.
as §1

CB1 receptor, sequence (P20272 whole entry): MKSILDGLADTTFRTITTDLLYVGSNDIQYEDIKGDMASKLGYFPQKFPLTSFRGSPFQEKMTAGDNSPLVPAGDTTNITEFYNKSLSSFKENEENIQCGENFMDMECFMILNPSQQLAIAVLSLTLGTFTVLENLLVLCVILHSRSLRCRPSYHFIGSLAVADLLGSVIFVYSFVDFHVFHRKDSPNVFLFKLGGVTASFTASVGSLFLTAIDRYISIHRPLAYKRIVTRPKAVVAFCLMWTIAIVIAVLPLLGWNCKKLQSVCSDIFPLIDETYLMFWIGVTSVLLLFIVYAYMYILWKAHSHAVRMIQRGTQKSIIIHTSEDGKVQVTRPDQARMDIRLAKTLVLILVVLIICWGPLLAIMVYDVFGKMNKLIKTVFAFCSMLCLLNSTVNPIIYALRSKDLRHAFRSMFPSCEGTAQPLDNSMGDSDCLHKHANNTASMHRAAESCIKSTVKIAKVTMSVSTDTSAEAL
T1 sequence (P34972 whole entry): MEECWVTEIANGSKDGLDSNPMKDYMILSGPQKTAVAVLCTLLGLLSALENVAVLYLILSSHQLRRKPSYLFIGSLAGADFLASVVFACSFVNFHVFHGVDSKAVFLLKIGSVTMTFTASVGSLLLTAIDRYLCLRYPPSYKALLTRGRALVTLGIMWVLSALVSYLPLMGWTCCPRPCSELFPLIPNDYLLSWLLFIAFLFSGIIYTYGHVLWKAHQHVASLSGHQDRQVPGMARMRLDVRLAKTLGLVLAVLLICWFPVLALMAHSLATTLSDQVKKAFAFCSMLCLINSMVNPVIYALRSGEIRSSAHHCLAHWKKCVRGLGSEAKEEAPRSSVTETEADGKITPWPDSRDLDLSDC

CCCCCCC(C)(C)c1cc(O)c(C2CCN(C)CC2)c(O)c1 [O-1662, 2-(1-Methylpiperidin-4-yl)-5-(1′,1′-dimethylheptyl)-re-sorcinol]
Ki (CB2 receptor): 5420 ± 1100 nM
S.A % effect at dose, stim. (Male ICR mice [1]; Table 6, stimulation, @ 10 (mg/kg)): 77% stim.
SA percent effect at the highest dose (Male ICR mice [1]; mice, i.v., 30 mg/kg, % inhibition of activity of vehicle group): 87%(30)
T.F. % effect at dose (Male ICR mice [2]; Table 6, @ 10 (mg/kg)): 7 @ 10%
TF percent effect (% MPE) at the highest dose (Male ICR mice [2]; mice, i.v., 30 mg/kg): 30%(30)
R.T. effect at dose (Male ICR mice [3]; Table 6, @ 10 (mg/kg)): 1 °C
RT effect at the highest dose (change in rectal temperature) (Male ICR mice [3]; mice, i.v., 30 mg/kg): −3(30) °C
Lethality at dose (Male ICR mice [4]): Lethal
Ki (CB1 receptor): > 10000 nM
